This passage reports IC50 results from ChEMBL document CHEMBL1833800, “Synthesis, preliminary biological evaluation and molecular modeling of some new heterocyclic inhibitors of TACE” (Eur J Med Chem, 2011).

pIC50: −log10 of the molar value.

The target in the assay is Disintegrin and metalloproteinase domain-containing protein 17 (Homo sapiens, UniProt P78536). The assay is described as follows: Inhibition of TACE in human whole blood assessed as reduction of LPS-induced TNFalpha production pretreated 15 mins before LPS challenge measured 5 hrs post LPS challenge.
Disintegrin and metalloproteinase domain-containing protein 17, sequence (P78536 whole entry, the tested form may be a part): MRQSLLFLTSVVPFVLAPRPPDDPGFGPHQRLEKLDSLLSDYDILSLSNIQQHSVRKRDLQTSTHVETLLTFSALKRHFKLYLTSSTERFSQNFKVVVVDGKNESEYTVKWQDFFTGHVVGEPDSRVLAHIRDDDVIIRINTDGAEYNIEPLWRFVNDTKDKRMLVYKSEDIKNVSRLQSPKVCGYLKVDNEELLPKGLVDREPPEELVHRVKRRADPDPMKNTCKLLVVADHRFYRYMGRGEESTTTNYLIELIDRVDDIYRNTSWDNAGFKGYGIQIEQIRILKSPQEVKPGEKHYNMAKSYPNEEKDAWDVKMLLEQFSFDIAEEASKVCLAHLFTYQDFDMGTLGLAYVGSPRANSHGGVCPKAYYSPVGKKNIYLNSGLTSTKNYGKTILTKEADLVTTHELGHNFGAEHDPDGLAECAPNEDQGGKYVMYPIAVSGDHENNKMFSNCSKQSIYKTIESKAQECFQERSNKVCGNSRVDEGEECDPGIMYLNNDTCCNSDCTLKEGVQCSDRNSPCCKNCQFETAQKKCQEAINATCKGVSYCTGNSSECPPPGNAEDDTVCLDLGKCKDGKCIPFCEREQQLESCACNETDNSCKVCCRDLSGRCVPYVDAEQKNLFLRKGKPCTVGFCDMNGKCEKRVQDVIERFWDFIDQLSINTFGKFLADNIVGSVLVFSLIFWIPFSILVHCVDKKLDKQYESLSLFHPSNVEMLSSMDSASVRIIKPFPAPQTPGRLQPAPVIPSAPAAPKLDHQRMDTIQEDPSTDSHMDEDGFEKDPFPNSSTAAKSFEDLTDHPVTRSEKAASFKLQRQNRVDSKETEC
Take `Cc1nc2ccccc2n1Cc1ccc(C(=O)N[C@@H]2CCOC[C@@H]2C(=O)NO)cn1`: the pIC50 is 7.10.
The value for `O=C(N[C@@H]1CCOC[C@@H]1C(=O)NO)c1ccc(Cn2c(C(F)(F)F)nc3ccccc32)nc1` was 6.80; that for `Cc1nc2ccccc2n1Cc1ccc(C(=O)N[C@@H]2CCCC[C@@H]2C(=O)NO)cn1` was 6.90; that for `O=C(N[C@@H]1CCCC[C@@H]1C(=O)NO)c1ccc(Cn2c(C(F)(F)F)nc3ccccc32)nc1` was 6.55.
The value for `Cc1nc2ccccc2n1Cc1ccc(C(=O)N[C@@H]2CCC[C@@H]2C(=O)NO)cn1` (single isomer, unassigned) was 7.15; that for `O=C(N[C@@H]1CCC[C@@H]1C(=O)NO)c1ccc(Cn2c(C(F)(F)F)nc3ccccc32)nc1` (single isomer, unassigned) was 7.13.
